Source: patent US20030092636A1, “Treatment and prevention of paresthesia comprising co-therapy with anticonvulsant derivatives and potassium” (priority 2001, published 2003)
Like-named read-outs stand apart in the source and are kept apart here.

Key:
paresthesias [1] = assay: Single-patient case reports: potassium chloride given to patients with paresthesias while taking topiramate; type: in vivo, human; conditions: potassium chloride 20 mEq/day
Procedure: The patient was a person who had cluster headaches. The patient was taking topiramate at 150 mg/day. They complained of paresthesias. The patient was given potassium chloride at 20 mEq/day.
The patient was a person who had migraine headaches and who was taking topiramate at 150 mg/day. They complained of paresthesias and was given potassium chloride at 20 mEq/day.
The patient was a person who had migraine headaches and was taking topiramate at 200 mg/day. They complained of paresthesias and was given potassium chloride at 20 mEq/day.
The patient was a person who had migraine headaches and was taking topiramate at 125 mg/day. They complained of paresthesias and was given potassium chloride at 20 mEq/day.
The patient was a person who had migraine headaches and was taking topiramate at 50 mg/day. They complained of paresthesias and was given potassium chloride at 20 mEq/day.

paresthesias [2] = assay: Anecdotal case studies: potassium supplementation in patients with persistent paresthesias; type: in vivo, human
[3] = infusion into an epidural catheter; cited from earlier work
paresthesia = conditions: intravenous potassium chloride in combination with spirocolactone; patient with hypokalemia and painful leg paresthesia; cited from earlier work
seizures [4] = conditions: animal model of kindled epilepsy; cited from earlier work
seizures [5] = conditions: several rodent models of epilepsy; cited from earlier work
[6] = system: simple and complex partial seizures and secondarily generalized seizures; conditions: adjunctive therapy or monotherapy; human epilepsy; cited from earlier work
[7] = cited from earlier work

SMILES	paresthesias outcome (paresthesias [1]; Example 3: person, cluster headaches, topiramate 150 mg/day, within 9 days)	paresthesias outcome (paresthesias [1]; Example 4: person, migraine, topiramate 150 mg/day, after about one month)	paresthesias outcome (paresthesias [1]; Example 5: person, migraine, topiramate 200 mg/day, after about two months)	paresthesias outcome (paresthesias [1]; Example 6: person, migraine, topiramate 125 mg/day, after about one month)	paresthesias outcome (paresthesias [1]; Example 7: person, migraine, topiramate 50 mg/day, after one month)	effect on persistent paresthesias (paresthesias [2]; patients complaining of persistent paresthesias, 20-40 meq/day potassium chloride)	effect on paresthesias and severity (paresthesias [2]; potassium chloride and food (orange juice and bananas) supplementation)	effect of inadvertent epidural infusion [3]	outcome of treatment (paresthesia)	seizure block (seizures [4])	seizure block (seizures [5])	efficacy in treating seizures [6]	adverse event or side effect ([7]; patients treated for epilepsy, migraine headaches, bipolar disorder)	severity of the paresthesia ([7]; patients treated with topiramate)
[Cl-].[K+] [potassium chloride]	paresthesias had abated	paresthesias had abated	paresthesias had abated	paresthesias had abated	paresthesias had abated	control of the paresthesias	effective in decreasing paresthesias and its severity	paresis (slight paralysis or weakness of a limb) and/or painful paraesthesias in the patient's extremities	stabilization of serum potassium, disappearance of paresthesia and normalization of muscle function and ECG					
CC1(C)O[C@@H]2[C@@H](CO[C@@]3(COS(N)(=O)=O)OC(C)(C)O[C@@H]23)O1 [topiramate, 2,3:4,5-bis-O-(1-methylethylidene)-β-D-fructopyranose sulfamate]										effectively block seizures	effectively block seizures	effective as adjunctive therapy or as monotherapy	paresthesia	mild to severe
